# Data from patent US9560876B2, “Acylamino acid compounds and food preparations containing same” (Nestec S.A., priority 2008, dated 2017).
# Target: human TRPA1 (Homo sapiens, UniProt O75762)
# Assay: Intracellular calcium [Ca2+]i flux in HEK 293 cells stably expressing TRPA1 (FLEXstation, Fura-2/AM)
# Assay type: cell-based
# Details: saturating concentration
# Method: Cloning and Expression of Human TRPV1 and TRPA1 Receptors in HEK 293 Cells: Cloning and expression of these receptors was performed following previously published protocols. Briefly, cloned human TRPV1 cDNA was obtained from RZPD (Germany) and hTRPA1 cDNA from OriGene (Rockville, Md.). Genes were subcloned into pcDNA5/FRT (Invitrogen, Carlsbad, Calif.) to generate stable cell lines using the Flp-In system (Invitrogen) after sequencing verification.
# Measurement of Intracellular Calcium Levels [Ca2+]i and Membrane Potential Variation in HEK 293 Cells Using a Fluorescent Plate Reader: Cell lines stably expressing TRP channels were seeded into 96-well plates previously coated with poly-D-lysine. […] [Ca2+]i fluxes from a homogeneous cell population (approximately 100000 cells) were measured as changes in fluorescence intensity when stimulated with agonists using a FLEXstation (Molecular Devices). […]
# Data Analysis: Responses of molecules in HEK 293 cells were expressed as a percentage of maximum responses evoked by 150 μM cinnamaldehyde for TRPA1 and 1 μM capsaicin for TRPV1 (these concentrations were assessed independently to be saturating under these conditions). For all experiments, calcium fluxes were measured as changes in fluorescence intensity, before and after the addition of agonists. […] Data obtained from this study were expressed as mean SEM. […]
# human TRPA1, sequence (O75762 whole entry): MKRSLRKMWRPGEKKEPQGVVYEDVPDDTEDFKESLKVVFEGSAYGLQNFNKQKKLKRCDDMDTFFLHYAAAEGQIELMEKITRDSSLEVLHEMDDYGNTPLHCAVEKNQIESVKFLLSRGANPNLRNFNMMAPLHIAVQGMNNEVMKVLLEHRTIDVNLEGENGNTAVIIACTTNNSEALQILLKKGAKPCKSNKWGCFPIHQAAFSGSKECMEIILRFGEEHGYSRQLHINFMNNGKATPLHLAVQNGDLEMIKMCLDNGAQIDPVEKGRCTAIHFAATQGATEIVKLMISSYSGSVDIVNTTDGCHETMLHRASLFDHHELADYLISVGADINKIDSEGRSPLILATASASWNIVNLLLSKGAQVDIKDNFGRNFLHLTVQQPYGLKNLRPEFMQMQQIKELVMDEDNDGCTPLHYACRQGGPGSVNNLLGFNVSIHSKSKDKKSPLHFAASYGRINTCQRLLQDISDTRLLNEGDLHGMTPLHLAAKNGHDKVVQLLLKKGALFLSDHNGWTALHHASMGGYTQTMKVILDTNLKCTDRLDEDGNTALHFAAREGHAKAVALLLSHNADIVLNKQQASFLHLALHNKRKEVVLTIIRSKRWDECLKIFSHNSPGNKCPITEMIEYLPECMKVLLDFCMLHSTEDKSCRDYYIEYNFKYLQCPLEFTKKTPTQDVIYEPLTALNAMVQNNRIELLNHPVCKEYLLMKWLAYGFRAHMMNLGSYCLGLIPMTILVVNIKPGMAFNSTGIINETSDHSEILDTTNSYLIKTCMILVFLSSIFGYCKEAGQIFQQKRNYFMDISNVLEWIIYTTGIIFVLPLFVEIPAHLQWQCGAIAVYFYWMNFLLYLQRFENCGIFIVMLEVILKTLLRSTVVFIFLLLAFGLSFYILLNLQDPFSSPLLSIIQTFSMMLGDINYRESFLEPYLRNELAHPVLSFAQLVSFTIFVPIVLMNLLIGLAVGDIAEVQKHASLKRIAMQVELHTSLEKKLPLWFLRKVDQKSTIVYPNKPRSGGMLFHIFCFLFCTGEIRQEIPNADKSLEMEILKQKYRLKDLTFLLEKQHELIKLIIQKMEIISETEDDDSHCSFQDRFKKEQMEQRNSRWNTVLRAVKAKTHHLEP
smiles,measurement,setting,value
CCC=CCC=CCC=CCCCCCCCC(=O)NC(C)C(=O)O (centres unmarked) [K],"selectivity of activation, TRPA1 versus TRPV1",comparison of TRPA1 and TRPV1 activation in HEK 293 cells,purely activating TRPA1
same,maximum activation on TRPA1,"responses expressed as percentage of maximum response evoked by 150 μM cinnamaldehyde, FIG. 1",strong stimulating effect
